The test system of assay [1] is HepG2 XBP1(u)-Luc cells. Briefly: HepG2 XBP1 reporter assay. Conditions: 6 h. It counts as cell-based. Put shortly:
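Reporter cells are HepG2 stably carrying unspliced XBP1 fused to firefly luciferase, which becomes in-frame after IRE1alpha-mediated splicing. SteadyGlo luminescence was normalized to DMSO-treated cells for IC50 calculation.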

Assay [2] deals with Colo-205 cells. Briefly: Calcium flux assay (FLIPR Calcium 5). It counts as cell-based. As to conditions: FLIPR Calcium 5, measured over 36 minutes. Here is the method: Compounds described herein induced ER stress by causing intracellular calcium flux. Calcium flux was measured in Colo-205 cells using the FLTPR® Calcium 5 Assay Kit according to manufacter's protocol (Molecular Devices, Cat. #R8186) on a FLIPR3 system (Molecular Devices). Calcium flux is measured over 36 minutes. The Colo-205 calcium flux assay data are summarized in Table 47: A<0.6 μM; 0.6 μM≤B<2.0 μM; 2.0 μM≤C<10.0 μM; D≥10.0 μM.
Background: Calcium flux is commonly read through the fluorescence of an indicator in the cells.

Assay [3] has as its system Colo205-TCF/LEF-Luciferase (Luc) tumor. Kind of assay: In vivo inhibition of TCF/LEF reporter activity in Colo-205 tumors. Conditions: TCF/LEF luciferase reporter in Colo-205 tumors, nu/nu mice, oral gavage. Further details: concentration or dose not given beside the values. Put shortly: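 Female nu/nu mice carried subcutaneous Colo205-TCF/LEF-luciferase tumours (200–500 mm^3), n=4 per group. Compound was given by oral gavage in 1:3:5:1 EtOH:DMSO:PEG-400:H2O at 10 ml/kg, with vehicle as control. Luciferase activity in tumour lysates (Steady-Glo) was normalised to BCA protein.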
(In general: Reporter assays use an easily measured gene product as a stand-in for the process of interest.)

SMILES strings stand for the structures. pEC50, pIC50: −log10 of the molar value.

Regarding `Cc1nc(NCc2cnn(Cc3ccc(C(F)(F)F)nc3)c2)nc2c1NC(=O)[C@H](C1CC1)N2C` [Compound 386, (7S)-7-Cyclopropyl-4,8-dimethyl-2-(((1-((6-(trifluoromethyl)pyridin-3-yl)methyl)-1H-pyrazol-4-yl)methyl)amino)-7,8-dihydropteridin-6(5H)-one], the pIC50 (in general, the negative decadic logarithm of the IC50, by convention in mol/L) in assay [1] (Homo sapiens) is above 6.22. Further, in assay [2] (Homo sapiens, COLO 205, 0.6 h), the pEC50 (as a rule, the negative decadic logarithm of the EC50, by convention in mol/L) was 5.70 to 6.22. In addition, in assay [3], the “Percent Remaining Activity at 8 hrs after Dosing” value (from here on “Percent Remaining Activity”) turned out to be 19%.

With `Cc1nc(NCc2cnn(Cc3ccc(C(F)(F)F)nc3C(C)C)c2)nc2c1NC(=O)[C@H](C)N2C` [Compound 388, (7S)-2-(((1-((2-isopropyl-6-(trifluoromethyl)pyridin-3-yl)methyl)-1H-pyrazol-4-yl)methyl)amino)-4,7,8-trimethyl-7,8-dihydropteridin-6(5H)-one], the pIC50 in assay [1] (Homo sapiens) was above 6.22. The pEC50 in assay [2] (Homo sapiens, COLO 205, 0.6 h) was above 6.22. For the same compound, the “Percent Remaining Activity” value in assay [3] came to 13%.

In assay [1] (Homo sapiens), `CCN1c2nc(NCc3cnn(Cc4ccc(C(F)(F)F)nc4)c3)nc(C)c2NC(=O)[C@@H]1C` [Compound 395, (7S)-8-Ethyl-4,7-dimethyl-2-(((1-((6-(trifluoromethyl)pyridin-3-yl)methyl)-1H-pyrazol-4-yl)methyl)amino)-7,8-dihydropteridin-6(5H)-one] had a pIC50 of 5.70 to 6.22. In assay [2] (Homo sapiens, COLO 205, 0.6 h), the pEC50 is 5.70 to 6.22. Moreover, in assay [3], the “Percent Remaining Activity” value is 19%.

In turn, `Cc1nc(NCc2cnn(Cc3cc(C(F)(F)F)nn3C)c2)nc2c1NC(=O)[C@H](C1CC1)N2C` [Compound 396, (7S)-7-Cyclopropyl-4,8-dimethyl-2-(((1-((1-methyl-3-(trifluoromethyl)-1H-pyrazol-5-yl)methyl)-1H-pyrazol-4-yl)methyl)amino)-7,8-dihydropteridin-6(5H)-one] gave a pIC50 in assay [1] (Homo sapiens) above 6.22. Further, the pEC50 in assay [2] (Homo sapiens, COLO 205, 0.6 h) is 5.70 to 6.22. Moreover, in assay [3], the “Percent Remaining Activity” value turned out to be 23%.

For the compound `Cc1nc(NCc2cnn(Cc3cc(C(F)(F)F)nn3C)c2)nc2c1NC(=O)[C@H](C(C)C)N2C` [Compound 397, (7S)-7-Isopropyl-4,8-dimethyl-2-(((1-((1-methyl-3-(trifluoromethyl)-1H-pyrazol-5-yl)methyl)-1H-pyrazol-4-yl)methyl)amino)-7,8-dihydropteridin-6(5H)-one], the negative logarithm of the IC50 (pIC50) in assay [1] (Homo sapiens) is above 6.22. In addition, in assay [2] (Homo sapiens, COLO 205, 0.6 h), the pEC50 is 5.70 to 6.22. Besides, the “Percent Remaining Activity” value in assay [3] was 23%.

Take `Cc1nc(NCc2cnn(Cc3ccc(C(F)(F)F)nc3)c2)nc2c1NC(=O)C1(CCC1)N2C` [Compound 398, 4′,8′-dimethyl-2′-(((1-((6-(trifluoromethyl)pyridin-3-yl)methyl)-1H-pyrazol-4-yl)methyl)amino)-5′,8′-dihydro-6′H-spiro[cyclobutane-1,7′-pteridin]-6′-one]: the pIC50 in assay [1] (Homo sapiens) was 5.70 to 6.22. The pEC50 in assay [2] (Homo sapiens, COLO 205, 0.6 h) was 5.70 to 6.22. Further, the “Percent Remaining Activity” value in assay [3] came out at 83%.

As to `Cc1nc(NCc2cnn(Cc3ccc(Cl)nc3)c2)nc2c1NC(=O)[C@H](C(C)C)N2C` [Compound 409, (7S)-2-(((1-((6-chloropyridin-3-yl)methyl)-1H-pyrazol-4-yl)methyl)amino)-7-isopropyl-4,8-dimethyl-7,8-dihydropteridin-6(5H)-one], the negative logarithm of the IC50 (pIC50) in assay [1] (Homo sapiens) is above 6.22. In addition, the pEC50 in assay [2] (Homo sapiens, COLO 205, 0.6 h) is 5.70 to 6.22. In assay [3], the “Percent Remaining Activity” value was found to be 27%.

On to `Cc1nc(NCc2cnn(Cc3ccc(C(F)(F)F)nc3C(C)(C)O)c2)nc2c1NC(=O)[C@H](C)N2C` [Compound 416, (7S)-2-(((1-((2-(2-hydroxypropan-2-yl)-6-(trifluoromethyl)pyridin-3-yl)methyl)-1H-pyrazol-4-yl)methyl)amino)-4,7,8-trimethyl-7,8-dihydropteridin-6(5H)-one], for which, in assay [1] (Homo sapiens), the pIC50 is above 6.22. Moreover, the pEC50 in assay [2] (Homo sapiens, COLO 205, 0.6 h) was 5.70 to 6.22. In addition, the “Percent Remaining Activity” value in assay [3] was 22%.

As for `Cc1nc(NCc2cnn(Cc3ccc(F)nc3)c2)nc2c1NC(=O)[C@H](C1CC1)N2C` [Compound 421, (7S)-7-cyclopropyl-2-(((1-((6-fluoropyridin-3-yl)methyl)-1H-pyrazol-4-yl)methyl)amino)-4,8-dimethyl-7,8-dihydropteridin-6(511)-one], the pIC50 in assay [1] was above 6.22. Further, the negative logarithm of the EC50 (pEC50) in assay [2] is 5.70 to 6.22. Further, in assay [3], the “Percent Remaining Activity” value was determined as 23%.

In turn, `Cc1cc(F)ncc1Cn1cc(CNc2nc(C)c3c(n2)N(C)[C@@H](C(C)C)C(=O)N3)cn1` [Compound 423, (7S)-2-(((1-((6-fluoro-4-methylpyridin-3-yl)methyl)-1H-pyrazol-4-yl)methyl)amino)-7-isopropyl-4,8-dimethyl-7,8-dihydropteridin-6(5H)-one] showed a pIC50 in assay [1] (Homo sapiens) above 6.22. For the same compound, the pEC50 in assay [2] (Homo sapiens, COLO 205, 0.6 h) is 5.70 to 6.22. Moreover, in assay [3], the “Percent Remaining Activity” value is recorded as 70%.

Compound `Cc1ncc(Cn2cc(CNc3nc(C)c4c(n3)N(C)[C@@H](C(C)C)C(=O)N4)cn2)cc1F` [Compound 425, (7S)-2-(((1-((5-fluoro-6-methylpyridin-3-yl)methyl)-1H-pyrazol-4-yl)methyl)amino)-7-isopropyl-4,8-dimethyl-7,8-dihydropteridin-6(5H)-one] had a negative-log IC50 (pIC50) in assay [1] (Homo sapiens) of 5.70 to 6.22. Besides, the pEC50 in assay [2] (Homo sapiens, COLO 205, 0.6 h) is 5.70 to 6.22. Besides, the “Percent Remaining Activity” value in assay [3] came out at 29%.

The values above are taken from patent US20230312587A1, “PTERIDINONE COMPOUNDS AND USES THEREOF” (Vertex Pharmaceutical Incorporated, priority 2018, published 2023).
